Source: ChEMBL document CHEMBL5113376, “Antimalarial application of quinones: A recent update” (Eur J Med Chem, 2021)
Converted amounts (≈) assume the structure as drawn. Values belong to the compound of their own block, whether it stands above or below them.

Legend:
[1] = tested on: Plasmodium falciparum; assay: Antimalarial activity against Plasmodium falciparum Dd2 treated for 48 hrs followed by hypoxanthine addition; format: functional, organism-based; conditions: Dd2, 48 h
[2] = tested on: Plasmodium berghei; assay: In vivo antiplasmodial activity against Chloroquine susceptible Plasmodium berghei ANKA infected in CD-1 mouse assessed as decrease in parasitaemia at 30 to 50 mg/kg/day, ip relative to control; format: functional; set-up: scale not given: the % may be the effect or the level left; conditions: dose 30-50 mg/kg/day
[3] = tested on: Plasmodium falciparum; assay: Antiplasmodial activity against Plasmodium falciparum K1; format: functional, organism-based
[4] = tested on: Plasmodium falciparum; assay: Antimalarial activity against Plasmodium falciparum Dd2 by 96-well microtitre plate method based scintillation counting analysis; format: functional, organism-based
[5] = tested on: Plasmodium falciparum; assay: Antiplasmodial activity against chloroquine sensitive Plasmodium falciparum F-32 Tanzania incubated for 48 hrs; format: functional, organism-based
[6] = tested on: Plasmodium falciparum; assay: Antimalarial activity against Plasmodium falciparum K14 incubated for 42 hrs in presence of 3H-hypoxanthine by top-count microbeta counter analysis; format: functional, organism-based
[7] = tested on: Plasmodium falciparum; assay: Antimalarial activity against Plasmodium falciparum 3D7 infected in human erythrocytes; format: functional, organism-based; conditions: 3D7, Erythrocyte
[8] = tested on: Plasmodium falciparum; assay: Antimalarial activity against Plasmodium falciparum D6; format: functional, organism-based
[9] = tested on: Plasmodium falciparum; assay: Antimalarial activity against Plasmodium falciparum W2; format: functional, organism-based
[10] = tested on: Plasmodium berghei; assay: Antimalarial activity against Plasmodium berghei; format: functional, organism-based
[11] = tested on: HEK293; assay: Cytotoxicity against HEK293 cells incubated for 48 hrs by MTT assay; format: functional; conditions: Homo sapiens
[12] = tested on: Plasmodium falciparum; assay: Antimalarial activity against Plasmodium falciparum; format: functional, organism-based
[13] = tested on: Plasmodium falciparum; assay: Antimalarial activity against Plasmodium falciparum W2 incubated for 24 hrs; format: functional, organism-based; conditions: for IC50: Plasmodium falciparum, W2, 24 h
[14] = tested on: Plasmodium berghei; assay: In vivo antiplasmodial activity against Plasmodium berghei ANKA infected in CD-1 mouse assessed as decrease in parasitaemia at 50 mg/kg, ip measured after 4 days relative to control; format: functional; set-up: scale not given: the % may be the effect or the level left; conditions: time 4 day
[15] = tested on: HepG2; assay: Cytotoxicity against human HepG2 cells incubated for 24 hrs by MTT assay; format: functional
[16] = tested on: A549; assay: Cytotoxicity against human A549 cells incubated for 24 hrs by MTT assay; format: functional
[17] = Cytotoxicity against […] LLC-PK1 cells incubated for 24 hrs by MTT assay; format: toxicity, cell-based, Sus scrofa; conditions: pig
[18] = Cytotoxicity against human MRC5 cells incubated for 24 hrs by MTT assay; format: toxicity, cell-based
[19] = tested on: Plasmodium falciparum; assay: Antiplasmodial activity against Chloroquine resistant Plasmodium falciparum FcB1 incubated for 48 hrs by SYBR green I based fluorescence assay; format: functional, organism-based; conditions: FcB1, 48 h
[20] = tested on: Plasmodium berghei; assay: In vivo plasmodial activity against Plasmodium berghei ANKA infected in Swiss mouse assessed as survival rate at 50 mg/kg, ip for 4 days after infection relative to control; format: functional; conditions: time 4 day
[21] = tested on: Plasmodium falciparum; assay: Antimalarial activity against Plasmodium falciparum TM91C235; format: functional, organism-based
[22] = tested on: Plasmodium falciparum; assay: Antiplasmodial activity against Chloroquine resistant Plasmodium falciparum FcB1 incubated for 48 hrs; format: functional, organism-based; conditions: FcB1, 48 h
[23] = tested on: Plasmodium falciparum; assay: Antimalarial activity against Plasmodium falciparum K1 by 96-well microtitre plate method based scintillation counting analysis; format: functional, organism-based; conditions: Plasmodium falciparum, K1
[24] = tested on: Plasmodium falciparum; assay: Antiplasmodial activity against Plasmodium falciparum Dd2 incubated for 48 hrs; format: functional, organism-based; conditions: Dd2, 48 h
[25] = tested on: Plasmodium falciparum; assay: Antiplasmodial activity against Plasmodium falciparum 3D7 incubated for 48 hrs; format: functional, organism-based; conditions: 3D7, 48 h
[26] = tested on: Plasmodium falciparum; assay: Antimalarial activity against chloroquine sensitive Plasmodium falciparum D10 incubated for 72 hrs by spectrophotometric analysis; format: functional, organism-based; conditions: D10, 72 h
[27] = tested on: Plasmodium falciparum; assay: Antimalarial activity against chloroquine resistant Plasmodium falciparum W2 incubated for 72 hrs by spectrophotometric analysis; format: functional, organism-based; conditions: W2, 72 h
[28] = Cytotoxicity against HMEC-1 cells treated for 72 hrs by MTT assay; format: toxicity, cell-based; conditions: human
[29] = tested on: Plasmodium falciparum; assay: Antiplasmodial activity against Chloroquine resistant plasmodium falciparum FCR-3; format: functional, organism-based
[30] = tested on: Plasmodium falciparum; assay: Antimalarial activity against Plasmodium falciparum D10; format: functional, organism-based
[31] = Cytotoxicity against HMEC-1 cells; format: toxicity, cell-based; conditions: human

Structure (SMILES): O=C(O)c1ccc2c(n1)C(=O)C1=C(C2=O)S(=O)(=O)C=CN1
IC50 [3]: 0.6 µM

Structure (SMILES): COc1ccc(N2C(=O)C(Oc3ccccc3)C2c2ccc3c(c2)C(=O)c2ccccc2C3=O)cc1 (configuration not stated)
IC50 [6]: 27 µM

Structure (SMILES): O=C1C(O)=C([C@H]2CC[C@H](c3ccc(Cl)cc3)CC2)C(=O)c2ccccc21 [ATOVAQUONE]
IC50 [8]: 0.00034 µM
IC50 [9]: 0.001 µM
IC50 [10]: 0.0197 µM
CC50 [11]: 0.049 µM

Structure (SMILES): CC(C)=CCC1=C(O)C(=O)c2ccccc2C1=O [LAPACHOL]
CC50 [15]: ≥ 285 µM
CC50 [16]: ≥ 285 µM
CC50 at 24 h [17]: ≥ 285 µM
CC50 at 24 h [18]: ≥ 285 µM
IC50 [13]: 80 µM

Structure (SMILES): COc1ccc2c(c1)C(=O)C(=O)C1=C2OC(C)C1(C)C (configuration not stated)
IC50 [19]: 0.845 µM
Activity [20]: 100%

Structure (SMILES): CC1=C(Cc2ccc(C(F)(F)F)cc2)C(=O)c2ccccc2C1=O
Activity [2]: 20.7%

Structure (SMILES): O=C1C2=C(C(=O)c3ccccc31)[C@H]1OCc3cc4c(cc3[C@H]1CO2)OCO4
IC50 [22]: 0.28 µM

Structure (SMILES): COc1cc2c(cc1O)CO[C@@H]1C3=C(OC[C@H]21)C(=O)c1ccccc1C3=O
IC50 [22]: 0.04 µM

Structure (SMILES): COc1cc2c(cc1O)[C@H]1COC3=C(C(=O)c4ccccc4C3=O)[C@H]1OC2
IC50 [22]: 0.03 µM

Structure (SMILES): O=C(O)c1cc2c(s1)C(=O)C1=C(C2=O)S(=O)(=O)C=CN1
IC50 [3]: 0.035 µM

Structure (SMILES): COc1cc(O)c(-c2c(C)cc(O)c3c2C(=O)c2ccc([C@H]4c5cccc(O)c5C(=O)c5c(O)cc(C)c(-c6c(O)cc(OC)c(C(C)=O)c6O)c54)c(O)c2C3=O)c(O)c1C(C)=O (stereo in doubt; 11)
IC50 [23]: 0.14 µM

Structure (SMILES): CCC1=C(NC(=O)C(C)(C)C)C(=O)C2=C(NCCS2(=O)=O)C1=O
IC50 [26]: 0.39 µM
IC50 [27]: 0.58 µM
IC50 at 72 h [28]: 1.6 µM

Structure (SMILES): COC(=O)/C(=C\CC/C(C)=C/CC/C(C)=C/CC1=CC(=O)C=C(C)C1=O)CCC=C(C)C
IC50 [29]: 8.2 µM

Structure (SMILES): COc1ccc(N2C(=O)C(Oc3ccc(Cl)cc3)C2c2ccc3c(c2)C(=O)c2ccccc2C3=O)cc1 (configuration not stated)
IC50 [6]: 38 µM

Structure (SMILES): O=C1c2ccccc2C(=O)c2cc(C3C(Oc4ccccc4)C(=O)N3c3cccc4ccccc34)ccc21 (configuration not stated)
IC50 [6]: 41 µM

Structure (SMILES): Cc1cc2c(c(C3=C(O)C(=O)c4c(O)ccc(O)c4C3=O)c1)C(=O)c1c(O)c3c(c(O)c1C2=O)C=CC(C)(C)O3
IC50 [4]: 1.57 µg/mL (≈ 2.9 µM)

Second part, led by results:

IC50 [1]: 0.046 µM
Structure (SMILES): CC1=C(Cc2ccc(F)cc2)C(=O)c2ccccc2C1=O
Activity [2]: 20.7%

IC50 [4]: 1.63 µg/mL (≈ 6.41 µM)
Structure (SMILES): Cc1ccc2c(c1)C(=O)c1c(O)ccc(O)c1C2=O

IC50 [5]: 3.3 µM
Structure (SMILES): O=C1C=C(OCc2cn(/C=C/c3ccc(C(F)(F)F)cc3)nn2)C(=O)c2ccccc21

IC50 [7]: 16 µM
Structure (SMILES): COc1ccc(CC2=C(O)C(=O)c3ccccc3C2=O)cc1

IC50 [12]: 0.05 µM
Structure (SMILES): CNCCCCNCCCNC(=O)c1c(C)oc2c1C(=O)c1ccccc1C2=O

IC50 [13]: 2.3 µM
Structure (SMILES): CC(=O)OC1=C(CC=C(C)C)C(=O)c2ccccc2C1=O
IC100 ([13]; time 24 hrs): 4.7 µM

IC50 [1]: 0.046 µM
Structure (SMILES): CC1=C(Cc2ccc(Br)cc2)C(=O)c2ccccc2C1=O
Activity [14]: 35.8%

IC50 [5]: 1.6 µM
Structure (SMILES): O=C(Cn1cc(COC2=CC(=O)c3ccccc3C2=O)nn1)c1ccc(-c2ccccc2)cc1

IC50 [1]: 0.046 µM
Structure (SMILES): CC1=C(Cc2ccc([N+](=O)[O-])cc2)C(=O)c2ccccc2C1=O
Activity [2]: 20.7%

IC50 [8]: 0.005 µM
IC50 [9]: 0.065 µM
IC50 [21]: 0.084 µM
IC50 [10]: 0.017 µM
Structure (SMILES): C[C@@H](CCCCCC(F)(F)F)CC1=C(O)C(=O)c2ccccc2C1=O

IC50 [1]: 0.055 µM
Structure (SMILES): CC1=C(Cc2ccc(O)cc2)C(=O)c2ccccc2C1=O
Activity [2]: 20.7%

IC50 [7]: 15.2 µM
Structure (SMILES): CC(C)(C)CC1=C(O)C(=O)c2ccccc2C1=O

IC50 [24]: 1.6 µM
IC50 [25]: 1.2 µM
Structure (SMILES): C/C=C/C1=C(O)C(=O)c2ccccc2C1=O

IC50 [9]: 1.12 µM
IC50 [30]: 0.81 µM
Structure (SMILES): COC1=C(Cc2ccc(OC(F)(F)F)cc2)C(=O)C2=C(NCCS2(=O)=O)C1=O
IC50 [31]: 3.59 µM

IC50 [24]: 0.22 µM
IC50 [25]: 2.4 µM
Structure (SMILES): CCCC/C=C/C1=C(O)C(=O)c2ccccc2C1=O

IC50 [7]: 13.7 µM
Structure (SMILES): O=C1C(O)=C(Cc2ccc([N+](=O)[O-])cc2)C(=O)c2ccccc21

IC50 [9]: 1.21 µM
IC50 [30]: 1.22 µM
Structure (SMILES): COC1=C(Cc2ccc(OC)cc2)C(=O)C2=C(NCCS2(=O)=O)C1=O
IC50 [31]: 17.9 µM
